Results: article PMC10433847, “The Plasmodium Lactate/H^+ Transporter PfFNT Is Essential and Druggable In Vivo” (Antimicrobial Agents and Chemotherapy, 2023)

Biological target: T1, PfFNT V196L (Plasmodium falciparum, UniProt O77389, V196L)
T1 sequence (O77389 1-309 V196L): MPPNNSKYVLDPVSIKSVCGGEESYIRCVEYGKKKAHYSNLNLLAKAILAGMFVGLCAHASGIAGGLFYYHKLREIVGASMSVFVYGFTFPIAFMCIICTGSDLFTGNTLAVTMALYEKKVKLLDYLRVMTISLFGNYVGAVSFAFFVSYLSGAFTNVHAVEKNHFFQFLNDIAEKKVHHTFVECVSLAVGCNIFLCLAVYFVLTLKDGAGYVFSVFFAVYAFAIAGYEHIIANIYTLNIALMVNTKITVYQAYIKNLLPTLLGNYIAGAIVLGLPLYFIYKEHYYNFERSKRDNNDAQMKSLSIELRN
Assay type: cell-based
Conditions: pH 6.8; read-out: IC50, inhibition of 14C-lactate transport

| SMILES | IC50 |
| --- | --- |
| O=C(/C=C(\O)C(F)(F)C(F)(F)F)c1cccnc1 [BH267.meta] | 850 ± 50 nM |
| COc1ccc2c(c1)OC(O)(C(F)(F)C(F)(F)F)CC2=O (centres unmarked) [MMV007839] | 730 ± 70 nM |
